This passage reports DC50 results from patent EP4692081A1, “PREPARATION METHOD FOR NAPHTHOISOXAZOLE COMPOUND” (priority 2023, dated 2024).

Counter-ions that a name gives are not always drawn.

Type in all cases: cell-based
Assay [1] addresses T1, IRAK4 (Homo sapiens, UniProt Q9NWZ3).
T1 construct: expressed in transfected cells; host or cells: K562 IRAK4-HiBiT cells
T1 sequence (Q9NWZ3 1-460): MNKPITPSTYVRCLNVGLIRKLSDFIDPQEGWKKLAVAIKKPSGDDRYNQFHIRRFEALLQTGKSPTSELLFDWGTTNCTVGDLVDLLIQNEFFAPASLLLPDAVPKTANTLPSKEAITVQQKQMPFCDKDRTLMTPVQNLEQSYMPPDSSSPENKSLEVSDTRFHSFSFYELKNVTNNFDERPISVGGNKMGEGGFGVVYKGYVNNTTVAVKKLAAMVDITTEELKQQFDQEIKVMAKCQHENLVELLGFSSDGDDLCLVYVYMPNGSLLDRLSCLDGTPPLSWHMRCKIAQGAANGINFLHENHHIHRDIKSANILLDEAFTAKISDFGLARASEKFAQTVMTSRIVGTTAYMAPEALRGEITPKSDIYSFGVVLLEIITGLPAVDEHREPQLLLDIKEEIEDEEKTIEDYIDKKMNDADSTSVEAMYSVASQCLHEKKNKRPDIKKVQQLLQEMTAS
In words: Target protein degradation effect in K562 IRAK4-HiBiT cells (Nano-Glo HiBiT luminescence). To be noted: incubated 16 to 18 hours. The protocol:
Objective: In this experiment, the degradation effect of the test compound on the target protein IRAK4 in K562 IRAK4-HiBiT cells was detected.
Cells: K562 IRAK4-HiBiT cells [formula]
Positive control: 1000 nM; negative control: 0.1% DMSO Table 1. Reagents and consumables
• 1. […] Cell seeding • (1) The cell culture medium was discarded, and the cells were washed once with DPBS, digested with trypsin, and counted to prepare a cell suspension of […]. • (2) 25 µL/well of cell suspension was added to the assay plate containing the test compound using Multidrop Combi at medium speed. • (3) The assay plate containing cells was returned to an incubator with 5% CO2 at 37°C and incubated for 16 to 18 hours.
• (1) 25 µL/well of assay reagent (NanoGlo lysis buffer + substrate + LgBit protein) was added to the assay plate using Multidrop Combi at high speed, and the plate was shaken for 10 minutes. • (2) The plate was centrifuged at 2000 rpm for 1 minute to remove air bubbles. • (3) The plate was read on Envision using US Luminescence detection method.
The degradation rate (DR) of the test compound was calculated using the following formula: DR (%) = (RLU vehicle control - RLU compound) / (RLU vehicle control - RLU positive control) * 100%, where the vehicle control served as the blank control. […]

Assay [2] has as its target T2, IKZF3 (Homo sapiens, UniProt Q96SW2+Q9UKT9).
T2 construct: expression levels of IKZF1 and IKZF3 proteins in MM.1S cells; host or cells: MM.1S cells
In words: In cell western analysis of IKZF3 protein expression level in MM.1S cells. To be noted: IKZF3, MM.1S cells, 24 hours. How it is done: (§1) Objective: The experiment was conducted to evaluate the degradation effects of test compounds on IKZF1 and IKZF3 proteins in MM.1S cells by detecting their impact on the expression levels of IKZF1 and IKZF3 proteins in MM.1S cells.
(§2) Cell line: MM.1S cell (obtained from ATCC; Cat. No. CRL-2974)
(§3) Negative control: 0.1% DMSO Table 4. Reagents and consumables
(§4) Experimental scheme: • 1) MM.1S cells in the logarithmic growth phase were seeded into a 96-well plate at 1.2 × 10^5 cells per well and cultured overnight. • 2) On the second day, drug treatment was initiated with a starting concentration of 300 nM, followed by a 3-fold dilution in triplicate wells, with 10 concentration gradients (containing DMSO), and incubated for 24 hours in a culture incubator. • 3) The mixture was centrifuged, and the cell supernatant was carefully removed. […]
(§5) GraphPad Prism 6 software was utilized to fit the curve with the inhibition rate data, and the DC50 value was calculated.

Assay [3] has as its target T3, IKZF1 (Homo sapiens, UniProt Q13422+Q96SW2).
T3 construct: expression levels of IKZF1 and IKZF3 proteins in MM.1S cells; host or cells: MM.1S cells
Nature of the assay: In cell western analysis of IKZF1 protein expression level in MM.1S cells. To be noted: IKZF 1, MM.1S cells, 24 hours. The protocol:
as §1, §2, §3, §4, §5

T3 sequence (Q13422 whole entry): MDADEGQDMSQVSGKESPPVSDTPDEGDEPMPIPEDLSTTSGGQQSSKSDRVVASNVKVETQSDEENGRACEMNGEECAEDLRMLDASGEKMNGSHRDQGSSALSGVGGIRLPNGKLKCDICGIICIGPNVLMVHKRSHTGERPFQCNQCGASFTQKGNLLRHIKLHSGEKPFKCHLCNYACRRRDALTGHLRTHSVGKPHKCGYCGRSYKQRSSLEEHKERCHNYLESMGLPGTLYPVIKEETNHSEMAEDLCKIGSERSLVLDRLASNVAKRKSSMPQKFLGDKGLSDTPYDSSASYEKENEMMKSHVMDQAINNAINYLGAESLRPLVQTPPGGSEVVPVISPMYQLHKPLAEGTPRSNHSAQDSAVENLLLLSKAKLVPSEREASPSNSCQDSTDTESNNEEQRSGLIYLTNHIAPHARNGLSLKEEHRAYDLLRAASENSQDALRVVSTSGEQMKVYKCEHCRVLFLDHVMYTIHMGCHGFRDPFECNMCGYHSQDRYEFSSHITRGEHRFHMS
T3 sequence (Q96SW2 whole entry): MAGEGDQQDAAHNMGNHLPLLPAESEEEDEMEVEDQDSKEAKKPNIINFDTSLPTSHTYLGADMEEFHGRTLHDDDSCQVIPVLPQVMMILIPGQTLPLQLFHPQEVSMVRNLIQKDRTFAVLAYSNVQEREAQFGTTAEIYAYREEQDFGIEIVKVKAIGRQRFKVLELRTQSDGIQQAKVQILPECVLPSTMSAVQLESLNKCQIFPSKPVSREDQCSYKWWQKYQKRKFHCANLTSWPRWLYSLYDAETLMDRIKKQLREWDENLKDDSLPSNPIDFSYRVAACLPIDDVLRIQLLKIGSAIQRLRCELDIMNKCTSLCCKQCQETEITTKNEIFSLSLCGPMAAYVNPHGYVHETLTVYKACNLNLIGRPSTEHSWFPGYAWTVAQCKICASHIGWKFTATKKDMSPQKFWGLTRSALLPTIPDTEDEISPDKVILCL
T3 sequence (Q16531 whole entry partner): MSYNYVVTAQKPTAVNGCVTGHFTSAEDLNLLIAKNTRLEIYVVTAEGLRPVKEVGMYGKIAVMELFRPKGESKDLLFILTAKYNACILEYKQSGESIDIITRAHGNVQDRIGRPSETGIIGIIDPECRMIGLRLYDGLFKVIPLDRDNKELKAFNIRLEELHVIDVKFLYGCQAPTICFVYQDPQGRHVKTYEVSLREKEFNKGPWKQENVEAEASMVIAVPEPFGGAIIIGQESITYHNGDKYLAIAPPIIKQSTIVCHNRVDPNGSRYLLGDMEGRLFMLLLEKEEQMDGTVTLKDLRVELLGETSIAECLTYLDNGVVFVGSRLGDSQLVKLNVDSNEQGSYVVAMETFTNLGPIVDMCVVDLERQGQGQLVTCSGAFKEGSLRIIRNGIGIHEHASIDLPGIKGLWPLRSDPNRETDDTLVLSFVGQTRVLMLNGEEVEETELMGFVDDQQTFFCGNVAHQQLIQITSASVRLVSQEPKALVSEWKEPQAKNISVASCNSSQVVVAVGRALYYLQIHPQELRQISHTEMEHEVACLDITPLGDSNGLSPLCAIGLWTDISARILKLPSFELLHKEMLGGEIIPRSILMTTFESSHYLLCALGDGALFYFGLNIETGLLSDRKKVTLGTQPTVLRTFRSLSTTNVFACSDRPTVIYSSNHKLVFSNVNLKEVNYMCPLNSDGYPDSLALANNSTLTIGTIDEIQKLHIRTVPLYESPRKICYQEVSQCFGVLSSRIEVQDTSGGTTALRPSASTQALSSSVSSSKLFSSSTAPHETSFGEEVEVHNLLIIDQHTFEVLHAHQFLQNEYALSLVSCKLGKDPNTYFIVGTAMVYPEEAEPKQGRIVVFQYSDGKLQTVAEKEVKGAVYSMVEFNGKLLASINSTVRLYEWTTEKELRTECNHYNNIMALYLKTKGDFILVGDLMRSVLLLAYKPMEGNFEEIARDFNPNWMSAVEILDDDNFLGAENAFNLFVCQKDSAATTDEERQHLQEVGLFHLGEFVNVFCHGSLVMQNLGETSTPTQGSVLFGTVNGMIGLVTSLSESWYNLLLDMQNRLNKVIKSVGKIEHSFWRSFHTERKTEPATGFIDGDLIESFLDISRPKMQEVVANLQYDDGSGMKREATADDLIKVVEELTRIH
T2 sequence (Q9UKT9 whole entry): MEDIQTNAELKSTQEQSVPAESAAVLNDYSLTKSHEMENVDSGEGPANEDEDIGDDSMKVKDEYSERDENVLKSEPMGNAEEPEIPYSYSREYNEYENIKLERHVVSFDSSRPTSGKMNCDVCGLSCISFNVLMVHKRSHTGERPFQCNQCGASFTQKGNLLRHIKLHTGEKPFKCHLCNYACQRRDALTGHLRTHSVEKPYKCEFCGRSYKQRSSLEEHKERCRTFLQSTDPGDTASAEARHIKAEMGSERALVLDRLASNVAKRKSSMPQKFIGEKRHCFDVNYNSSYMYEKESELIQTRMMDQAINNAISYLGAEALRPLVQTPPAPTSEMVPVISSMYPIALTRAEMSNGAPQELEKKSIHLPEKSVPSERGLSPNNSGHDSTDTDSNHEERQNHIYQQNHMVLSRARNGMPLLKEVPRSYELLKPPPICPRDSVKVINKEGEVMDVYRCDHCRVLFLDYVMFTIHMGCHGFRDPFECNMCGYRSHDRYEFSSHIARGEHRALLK
T2 sequence (Q96SW2 whole entry): as the sequence (Q96SW2 whole entry) above
T2 sequence (Q16531 whole entry partner): as the sequence (Q16531 whole entry partner) above

On to `O=C1CCC(c2noc3ccc4c(NC(=O)CN5CCN(C[C@H]6CC[C@H](n7cc(NC(=O)c8coc(-c9ccnc(NCC%10CC%10)c9)n8)c(C(F)F)n7)CC6)CC5)cccc4c23)C(=O)N1` (stereo partly drawn) [Hydrochloride of Compound of Formula (I)], for which the DC50 was found to be 0.00487 µM in assay [1], 0.0206 µM in assay [2] and 0.0234 µM in assay [3].
